According to ChEMBL document CHEMBL3593218, “4,6-Substituted-1,3,5-triazin-2(1H)-ones as monocyclic catalytic inhibitors of human DNA topoisomerase IIα targeting the ATP binding site” (Bioorg Med Chem, 2015):
Values joined by “and” are separate entries in the source; they are usually repeats but may differ in a detail not shown here. Equal entries are not always repeated.

Experiments:
[1] = molecular target: T1, DNA topoisomerase 2-alpha (Homo sapiens, UniProt P11388); test: Inhibition of human DNA topoisomerase IIalpha using plasmid pNO1 as a substrate after 30 mins
T1 sequence (P11388 whole entry): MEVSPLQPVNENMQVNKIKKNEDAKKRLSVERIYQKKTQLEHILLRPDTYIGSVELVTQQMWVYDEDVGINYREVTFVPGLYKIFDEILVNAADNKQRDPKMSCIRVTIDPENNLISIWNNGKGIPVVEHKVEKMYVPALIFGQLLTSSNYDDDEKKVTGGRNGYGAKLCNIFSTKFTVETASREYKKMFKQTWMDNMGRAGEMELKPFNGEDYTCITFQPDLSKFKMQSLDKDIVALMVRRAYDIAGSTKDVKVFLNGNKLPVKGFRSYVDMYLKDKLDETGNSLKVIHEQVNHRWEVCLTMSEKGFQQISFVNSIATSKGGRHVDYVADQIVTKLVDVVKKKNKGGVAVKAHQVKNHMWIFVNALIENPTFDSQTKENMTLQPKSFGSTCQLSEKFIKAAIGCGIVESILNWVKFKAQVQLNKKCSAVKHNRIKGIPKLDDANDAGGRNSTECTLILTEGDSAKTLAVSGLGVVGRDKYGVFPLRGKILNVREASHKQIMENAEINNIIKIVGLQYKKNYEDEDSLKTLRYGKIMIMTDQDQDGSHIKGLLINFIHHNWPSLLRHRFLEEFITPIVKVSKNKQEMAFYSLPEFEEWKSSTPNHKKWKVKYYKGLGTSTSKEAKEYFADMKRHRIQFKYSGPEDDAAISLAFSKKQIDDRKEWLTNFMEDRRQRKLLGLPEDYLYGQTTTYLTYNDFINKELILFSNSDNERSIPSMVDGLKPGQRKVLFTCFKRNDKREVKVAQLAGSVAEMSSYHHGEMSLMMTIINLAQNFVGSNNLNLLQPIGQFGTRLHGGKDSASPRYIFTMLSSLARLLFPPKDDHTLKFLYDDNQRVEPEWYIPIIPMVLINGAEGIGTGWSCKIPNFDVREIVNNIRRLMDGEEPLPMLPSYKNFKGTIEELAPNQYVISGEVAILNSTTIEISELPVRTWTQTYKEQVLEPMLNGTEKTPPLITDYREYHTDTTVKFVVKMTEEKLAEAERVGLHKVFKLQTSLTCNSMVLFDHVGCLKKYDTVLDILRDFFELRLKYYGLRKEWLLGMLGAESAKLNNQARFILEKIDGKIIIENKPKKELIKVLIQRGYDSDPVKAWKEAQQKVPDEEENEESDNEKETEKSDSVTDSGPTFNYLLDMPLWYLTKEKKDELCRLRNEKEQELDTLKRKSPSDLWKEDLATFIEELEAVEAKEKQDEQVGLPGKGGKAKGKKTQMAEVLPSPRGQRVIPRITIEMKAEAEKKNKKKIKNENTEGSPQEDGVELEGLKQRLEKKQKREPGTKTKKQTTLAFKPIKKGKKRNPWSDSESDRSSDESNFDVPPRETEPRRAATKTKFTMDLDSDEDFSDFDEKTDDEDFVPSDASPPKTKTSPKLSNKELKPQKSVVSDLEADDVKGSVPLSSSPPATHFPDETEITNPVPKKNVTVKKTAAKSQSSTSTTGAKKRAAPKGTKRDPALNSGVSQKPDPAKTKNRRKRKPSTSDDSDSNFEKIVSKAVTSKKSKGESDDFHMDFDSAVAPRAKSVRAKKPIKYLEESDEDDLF

[2] = Lipophilicity, log P of the compound; type: physicochemical; conditions: octanol/water
[3] = molecular target: T1, DNA topoisomerase 2-alpha; test: Inhibition of human DNA topoisomerase IIalpha assessed as reduction in enzyme-catalyzed supercoiling of relaxed circular pBR322 DNA by measuring linear DNA level at 31.5 uM after 60 mins by agarose gel electrophoresis; design: scale not given: the % may be the effect or the level left
[4] = molecular target: T1, DNA topoisomerase 2-alpha; test: Inhibition of human DNA topoisomerase IIalpha assessed as reduction in enzyme-catalyzed supercoiling of relaxed circular pBR322 DNA by measuring linear DNA level at 50 uM after 60 mins by agarose gel electrophoresis; design: scale not given: the % may be the effect or the level left
[5] = molecular target: T1, DNA topoisomerase 2-alpha; test: Inhibition of human DNA topoisomerase IIalpha assessed as decatenation of kDNA at 31.5 uM after 90 mins by ethidium bromide staining; design: scale not given: the % may be the effect or the level left
[6] = molecular target: T1, DNA topoisomerase 2-alpha; test: Inhibition of human DNA topoisomerase IIalpha assessed as reduction in enzyme-catalyzed supercoiling of relaxed circular pBR322 DNA by measuring linear DNA level at 3.9 uM after 60 mins by agarose gel electrophoresis; design: scale not given: the % may be the effect or the level left
[7] = molecular target: T1, DNA topoisomerase 2-alpha; test: Inhibition of human DNA topoisomerase IIalpha assessed as decatenation of kDNA at 125 uM after 90 mins by ethidium bromide staining; design: scale not given: the % may be the effect or the level left
[8] = molecular target: T1, DNA topoisomerase 2-alpha; test: Inhibition of human DNA topoisomerase IIalpha assessed as reduction in enzyme-catalyzed supercoiling of relaxed circular pBR322 DNA by measuring linear DNA level at 62.5 uM after 60 mins by agarose gel electrophoresis; design: scale not given: the % may be the effect or the level left
[9] = molecular target: T1, DNA topoisomerase 2-alpha; test: Inhibition of human DNA topoisomerase IIalpha assessed as reduction in enzyme-catalyzed supercoiling of relaxed circular pBR322 DNA by measuring linear DNA level at 125 uM after 60 mins by agarose gel electrophoresis; design: scale not given: the % may be the effect or the level left
[10] = molecular target: T1, DNA topoisomerase 2-alpha; test: Inhibition of human DNA topoisomerase IIalpha assessed as reduction in enzyme-catalyzed supercoiling of relaxed circular pBR322 DNA by measuring linear DNA level at 500 uM after 60 mins by agarose gel electrophoresis; design: scale not given: the % may be the effect or the level left
[11] = molecular target: T1, DNA topoisomerase 2-alpha; test: Inhibition of human DNA topoisomerase IIalpha ATPase activity assessed as residual ATP hydrolysis at 125 uM measured up to 60 mins
[12] = molecular target: T1, DNA topoisomerase 2-alpha; test: Inhibition of human DNA topoisomerase IIalpha assessed as decatenation of kDNA at 500 uM after 90 mins by ethidium bromide staining; design: scale not given: the % may be the effect or the level left
[13] = molecular target: T1, DNA topoisomerase 2-alpha; test: Inhibition of human DNA topoisomerase IIalpha ATPase activity assessed as residual ATP hydrolysis at 3.9 uM measured up to 60 mins
[14] = molecular target: T1, DNA topoisomerase 2-alpha; test: Inhibition of human DNA topoisomerase IIalpha assessed as decatenation of kDNA at 3.9 uM after 90 mins by ethidium bromide staining; design: scale not given: the % may be the effect or the level left
[15] = molecular target: T1, DNA topoisomerase 2-alpha; test: Inhibition of human DNA topoisomerase IIalpha ATPase activity assessed as residual ATP hydrolysis at 31.5 uM measured up to 60 mins
[16] = molecular target: T1, DNA topoisomerase 2-alpha; test: Inhibition of human DNA topoisomerase IIalpha ATPase activity assessed as residual ATP hydrolysis at 500 uM measured up to 60 mins
[17] = molecular target: T1, DNA topoisomerase 2-alpha; test: Inhibition of human DNA topoisomerase IIalpha assessed as decatenation of kDNA after 90 mins by ethidium bromide staining
[18] = molecular target: T1, DNA topoisomerase 2-alpha; test: Inhibition of human DNA topoisomerase IIalpha assessed as reduction in enzyme-catalyzed supercoiling of relaxed circular pBR322 DNA by measuring linear DNA level at 500 uM after 60 mins by agarose gel electrophoresis in presence of 50 uM of etoposide; design: scale not given: the % may be the effect or the level left
[19] = molecular target: T1, DNA topoisomerase 2-alpha; test: Inhibition of human DNA topoisomerase IIalpha assessed as decatenation of kDNA at 15.625 uM after 90 mins by ethidium bromide staining; design: scale not given: the % may be the effect or the level left
[20] = molecular target: T1, DNA topoisomerase 2-alpha; test: Inhibition of human DNA topoisomerase IIalpha assessed as decatenation of kDNA at 62.5 uM after 90 mins by ethidium bromide staining; design: scale not given: the % may be the effect or the level left
[21] = molecular target: T1, DNA topoisomerase 2-alpha; test: Inhibition of human DNA topoisomerase IIalpha assessed as reduction in enzyme-catalyzed supercoiling of relaxed circular pBR322 DNA by measuring linear DNA level at 3.9 uM after 60 mins by agarose gel electrophoresis in presence of 50 uM of etoposide; design: scale not given: the % may be the effect or the level left
[22] = molecular target: T1, DNA topoisomerase 2-alpha; test: Inhibition of human DNA topoisomerase IIalpha assessed as reduction in enzyme-catalyzed supercoiling of relaxed circular pBR322 DNA by measuring linear DNA level at 31.5 uM after 60 mins by agarose gel electrophoresis in presence of 50 uM of etoposide; design: scale not given: the % may be the effect or the level left
[23] = molecular target: T1, DNA topoisomerase 2-alpha; test: Inhibition of human DNA topoisomerase IIalpha assessed as reduction in enzyme-catalyzed supercoiling of relaxed circular pBR322 DNA by measuring linear DNA level at 125 uM after 60 mins by agarose gel electrophoresis in presence of 50 uM of etoposide; design: scale not given: the % may be the effect or the level left
[24] = molecular target: T1, DNA topoisomerase 2-alpha; test: Inhibition of human DNA topoisomerase IIalpha assessed as reduction in enzyme-catalyzed supercoiling of relaxed circular pBR322 DNA by measuring linear DNA level after 60 mins by agarose gel electrophoresis
[25] = molecular target: T1, DNA topoisomerase 2-alpha; test: Inhibition of human DNA topoisomerase IIalpha ATPase activity assessed as residual ATP hydrolysis at 62.5 uM measured up to 60 mins
[26] = molecular target: T1, DNA topoisomerase 2-alpha; test: Inhibition of human DNA topoisomerase IIalpha ATPase activity assessed as residual ATP hydrolysis at 15.625 uM measured up to 60 mins
[27] = molecular target: T1, DNA topoisomerase 2-alpha; test: Inhibition of human DNA topoisomerase IIalpha assessed as reduction in enzyme-catalyzed supercoiling of relaxed circular pBR322 DNA by measuring linear DNA level at 15.625 uM after 60 mins by agarose gel electrophoresis; design: scale not given: the % may be the effect or the level left

Structure (SMILES) | IC50 [1] [µM] | other results
O=c1nc(SCc2ccccc2)nc(SCc2ccc(Cl)cc2)[nH]1 | 219 | 
COC(=O)c1ccccc1Nc1nc(Cl)nc(Cl)n1 | > 1000 | 
O=C(O)CSC1N=C(SCc2ccccc2)NC(=O)N1 (stereo unspecified) | > 1000 | 
Clc1nc(Cl)nc(Nc2ccccc2Br)n1 | > 1000 | 
COc1nc(OC)nc(Sc2ccccc2C(=O)O)n1 | > 1000 | 
Nc1ccc(-c2nc(=S)[nH]c(=O)[nH]2)cc1 | > 1000 | 
CC(C)OC(=O)C(C)NC(=O)c1ccc(Nc2nc(Cl)nc(Cl)n2)cc1 (stereo unspecified) | > 1000 | 
O=c1nc(SCc2ccccc2)nc(SCc2ccccc2Cl)[nH]1 | 94.1 | logP [2]: 3.3
COc1ccc(CCNc2nc(Cl)nc(Cl)n2)cc1OC | > 1000 | 
CCc1ccccc1Nc1nc(Cl)nc(Cl)n1 | > 1000 | 
O=c1nc(-c2cccc([N+](=O)[O-])c2)nc(S)[nH]1 | > 1000 | 
COc1ccc(CNc2nc(Cl)nc(Nc3ccccc3CCO)n2)cc1 | > 1000 | 
COc1ccc(CNc2nc(Cl)nc(N(C)CCO)n2)cc1 | > 1000 | 
O=c1nc(SCc2ccccc2)nc(SCC2CCC2)[nH]1 | > 1000 | 
O=C(O)c1ccccc1Sc1nc(Cl)nc(Cl)n1 | > 1000 | 
COc1cc([C@@H]2c3cc4c(cc3[C@@H](O[C@@H]3O[C@@H]5CO[C@@H](C)O[C@H]5[C@H](O)[C@H]3O)[C@H]3COC(=O)[C@H]23)OCO4)cc(OC)c1O |  | Activity [3]: 34.3%; Activity [4]: 34.6%; Activity [5]: 68.8%; Activity [6]: 12.4%; Activity [7]: 14.2%; Activity [8]: 18.1%; Activity [9]: 36.1%; Activity [10]: 32.5%; Activity [11]: 31.8%; Activity [12]: 3.25%; Activity [13]: 65.4%; Activity [14]: 88.3%; Activity [15]: 45.8%; Activity [16]: 18.7%
COc1nc(OC)nc(Sc2ccccc2C(=O)N[C@H](CCC(=O)OCc2ccccc2)C(=O)OCc2ccccc2)n1 | > 1000 | 
O=c1nc(SCc2ccccc2)nc(SCc2cccc([N+](=O)[O-])c2)[nH]1 | 488 | 
N#Cc1cccc(CSc2nc(SCc3ccccc3)nc(=O)[nH]2)c1 | 528 | 
N#Cc1ccc(CSc2nc(SCc3ccccc3)nc(=O)[nH]2)c(F)c1 | 486 | 
COc1cccc(CSc2nc(SCc3ccccc3)nc(=O)[nH]2)c1 | 485 | 
O=c1nc(SCc2ccccc2)nc(S)[nH]1 | > 1000 | 
OCCc1ccccc1Nc1nc(Cl)nc(NCc2ccccc2)n1 | > 1000 | 
N#Cc1ccc(CSc2nc(SCc3ccccc3)nc(=O)[nH]2)cc1 | 153 | 

Structure (SMILES) | IC50 [1] [µM] | other results
OCCc1ccccc1Nc1nc(Cl)nc(Cl)n1 | > 1000 | 
COC(=O)c1ccccc1Oc1nc(OC)nc(OC)n1 | > 1000 | 
CN(CCO)c1nc(Cl)nc(Nc2ccccc2CCO)n1 | > 1000 | 
O=c1nc(SCc2ccccc2)nc(SCc2ccc([N+](=O)[O-])cc2)[nH]1 | 359 | 
COc1nc(Nc2ccccc2C(=O)O)nc(OC)n1 | > 1000 | 
O=c1nc(SCc2ccccc2)nc(SCc2cccc(Cl)c2)[nH]1 | 54.6 | Activity [3]: 1.2%; Activity [5]: 33.9%; Activity [6]: 4.4%; Activity [7]: 0%; inhibition [17]: Dose-dependent effect; Activity [18]: 5.3%; Activity [9]: 3.5%; Activity [10]: 2.5%; logP [2]: 3.3; Activity [12]: 0%; Activity [19]: 18.2%; Activity [20]: 6.05%; Activity [21]: 34.3%; Activity [14]: 87.3%; Activity [22]: 33.5%; Activity [23]: 9.2%; inhibition [24]: Dose-dependent effect
O=c1nc(SCc2ccccc2)nc(SCC2CC2)[nH]1 | 481 | 
O=c1nc(SCc2ccccc2)nc(SCc2ccccc2[N+](=O)[O-])[nH]1 | 377 | 
COc1nc(N[C@H](CCC(=O)O)C(=O)O)nc(OC)n1 | > 1000 | 
COc1nc(Nc2ccccc2C(=O)N[C@@H](C)C(=O)OCc2ccccc2)nc(N[C@@H](C)C(=O)OCc2ccccc2)n1 | > 1000 | 
N#Cc1ccccc1CSc1nc(SCc2ccccc2)nc(=O)[nH]1 | 522 | 
O=c1nc(SCc2ccccc2)nc(SCc2ccc(F)cc2)[nH]1 | 147 | 
CCCSc1nc(SCc2ccccc2)[nH]c(=O)n1 | > 1000 | 
O=C1NC(SCc2ccccc2)=NC(Sc2ccccc2)N1 (stereo unspecified) | > 1000 | 
COc1ccc(CNc2nc(Cl)nc(Cl)n2)cc1 | > 1000 | 
COc1ccc(CSc2nc(SCc3ccccc3)nc(=O)[nH]2)cc1 | > 1000 | 
O=c1nc(SCc2ccccc2)nc(SCC2CCCCC2)[nH]1 | > 1000 | 
CC(C)(C)c1ccccc1Nc1nc(Cl)nc(Cl)n1 | > 1000 | 
COc1nc(N[C@H](CCC(=O)OCc2ccccc2)C(=O)OCc2ccccc2)nc(OC)n1 | > 1000 | 
CCCCSc1nc(SCc2ccccc2)nc(=O)[nH]1 | 235 | 
CC(C(C)N1CC(=O)NC(=O)C1)N1CC(=O)NC(=O)C1 (stereo unspecified) |  | Activity [3]: 2.51%; Activity [5]: 10.8%; Activity [6]: 1.7%; Activity [8]: 2.1%; Activity [25]: 0%; Activity [26]: 0%; Activity [13]: 0%; Activity [19]: 18.2%; Activity [20]: 6.05%; Activity [14]: 77.4%; Activity [15]: 0%; Activity [27]: 3.1%; Activity [16]: 0% and 18.7%
Cc1ccc(-c2nc(S)[nH]c(=O)n2)cc1 | > 1000 | 
O=c1nc(-c2ccccc2)nc(S)[nH]1 | > 1000 | 
COc1ccccc1CSc1nc(SCc2ccccc2)nc(=O)[nH]1 | > 1000 | 
